Values after ≈ are worked out from the molar mass of the structure shown.
Test system: not given
Assay: not given
Details: cited from earlier work
For `COc1ccc2[nH]c([S+]([O-])Cc3ncc(C)c(OC)c3C)nc2c1` (stereo not shown) [omeprazole], the solubility in water is given as 359 µg/mL (≈ 1040 µM). For `CO[C@H]1C[C@@H]2CC[C@@H](C)[C@@](O)(O2)C(=O)C(=O)N2CCCC[C@H]2C(=O)O[C@H]([C@H](C)C[C@@H]2CC[C@@H](OC(=O)C(C)(CO)CO)[C@H](OC)C2)CC(=O)[C@H](C)/C=C(\C)[C@@H](O)[C@@H](OC)C(=O)[C@H](C)C[C@H](C)/C=C/C=C/C=C/1C` [temsirolimus], the solubility in water is given as 20 µg/mL (≈ 19.4 µM). In the case of `COc1cc([C@@H]2c3cc4c(cc3[C@@H](O[C@@H]3O[C@@H]5CO[C@@H](c6cccs6)O[C@H]5[C@H](O)[C@H]3O)[C@H]3COC(=O)[C@H]23)OCO4)cc(OC)c1O` [teniposide], the solubility in water is given as 59.8 µg/mL (≈ 91.1 µM).

Test system: not given
Assay: not given
Details: not given
Procedure: Solubilization studies. In order to link the surfactant properties of McC1 and its stimulating impact on UQ10 uptake, the solubilization characteristics of McC1 on UQ10 have been determined. First, solubilization test was performed by overnight shaking of a mixture of UQ10 and McC1 in water.
Additional solubilization tests were performed using sonication. Excess amount of UQ10 was mixed with McC1 by sonication for 2 min in water.
Like caspofungin/McC1, surfactin is a cyclic lipopeptide. It is produced from various strains of Bacillus subtilis. Structurally it consists of a peptide chain formed by seven amino acids linked to a β-hydroxyl fatty acid via a lactone bond. It is known for its exceptional surfactant power. […] Then, solubilization test was performed by overnight shaking of a mixture of UQ10 and surfactin in water. The mixture were subjected to brief centrifugation to separate undissolved UQ10 before absorbance of the resultant clear supernatant at 275 nm was measured spectrophotometrically.
Several other surfactants were tested for their ability to solubilize UQ. Briefly, excess amount of UQ10 was mixed with water solution of the tested surfactants using sonication. The resultant suspensions were then filtered through a 0.45 μm syringe filter to remove undissolved UQ10.
For Saponins, the “solubilization of UQ10 in water by the compound” value was “improve the water solubility of UQ10”. For lipopeptide detergent-12 [LPD-12], the “solubilization of UQ10 in water by the compound” value was “increases the water solubilization of UQ10”.

Test system: UQ-deficient cells (Mclk1 KO or DKO cells)
Assay: Screening for compounds that increase survival or respiration of UQ-deficient cells
Assay type: cell-based, mouse
Details: not given
Excerpt: Four different screening methods were developed. The screening methods 1 to 3 are based on rescue-of-lethality in glucose-free galactose-containing media. The presence of galactose instead of glucose forces the cells to rely on oxidative phosphorylation for energy production. Screening method 4 is based on rescue of respiration, implying that processes immediately dependent on UQ have been rescued. Libraries of small molecules were screened for compounds and/or agents that increase survival of UQ-deficient cells (e.g., Mclk1 KO or DKO cells) in standard or modified galactose media depending on the screen settings.
The screen uses cells lacking UQ (e.g., Mclk1 KO cells) and consists of three key steps: • 1) Day 0: preparation of Mclk1 KO cells in 96-well plates in standard (glucose-containing) culture medium. • 2) Day 1: changing to glucose-free galactose-containing medium and adding compounds to be screened at a concentration of approximately 10 μM. • 3) Day 4 to 6: following 3 to 5 days of incubation with the compound to be screened, media were removed and cell viability was assayed by resazurin reduction assay.
The screen also uses cells lacking UQ biosynthesis (e.g., DKO cells) and its protocol is essentially the same as the galactose-only screen except that in step 2, a minimal amount of UQ10 is added into the galactose screening media at a concentration at which the added UQ10 is insufficient by itself to support survival.
The screen uses Mclk1 SKO cells and its protocol is essentially the same as the galactose-only screen except that in step 2, the screening medium is added with 2,4-DHB at a concentration that allows the KO cells to restore some UQ biosynthetic ability but not sufficiently to allow for a level of UQ production that is sufficient for respiration-dependent growth. Thus, under these conditions a compound that can boost the overall level of UQ biosynthesis might allow the cells to make enough UQ to survive in a respiration-dependent medium. Such a screen can identify compounds that boost UQ biosynthesis at any level, including at the level of gene expression.
This screening approach aims to directly identify compounds that can boost mitochondrial respiratory chain activity in respiration-deficient cells. […] For this, cells were seeded into XF24 V7 culture plates and treated with testing compounds for 1 to 2 days before a treatment effect on cellular respiration is measured using the Seahorse XF-24e Flux Analyzer. The XF assay was the same as above described except galactose (10 mM) rather glucose was used as the sugar source to increase respiration rate and thus assay sensitivity.
With `CC1(C)O[C@@H]2C[C@H]3[C@@H]4CCC5=CC(=O)CC[C@]5(C)[C@@]4(F)[C@@H](O)C[C@]3(C)[C@]2(C(=O)CCl)O1` [halcinonide] the “identified by the screening methods as useful for UQ deficiency” value (“identified by the screening methods” below) was “identified”. For `C[C@]12CCC(=O)C=C1CC[C@@H]1[C@@H]2[C@@H](O)C[C@@]2(C)[C@H]1CC[C@]2(O)C(=O)CO` [hydrocortisone], the “identified by the screening methods” value was “identified”. With `CCOC(=O)O[C@]1(C(=O)OCCl)CC[C@H]2[C@@H]3CCC4=CC(=O)C=C[C@]4(C)[C@H]3[C@@H](O)C[C@@]21C` [ioteprednol etabonate] the “identified by the screening methods” value was “identified”. With `CCc1c2c(nc3ccc(OC(=O)N4CCC(N5CCCCC5)CC4)cc13)-c1cc3c(c(=O)n1C2)COC(=O)[C@]3(O)CC` [irinotecan] the “identified by the screening methods” value was “identified”. With `C[C@@H]1C[C@H]2[C@@H]3CCC4=CC(=O)C=C[C@]4(C)[C@@]3(Cl)[C@@H](O)C[C@]2(C)[C@@]1(OC(=O)c1ccco1)C(=O)CCl` [mometasone furoate] the “identified by the screening methods” value was “identified”. In the case of `CC(=O)OCC(=O)[C@@]1(O)CC[C@H]2[C@@H]3CCC4=CC(=O)C=C[C@]4(C)[C@H]3[C@@H](O)C[C@@]21C` [prednisolone acetate], the “identified by the screening methods” value is reported as “identified”. For `C[C@]12C=CC(=O)C=C1CC[C@@H]1[C@@H]2[C@@H](O)C[C@@]2(C)[C@H]1CC[C@]2(O)C(=O)CO` [prednisolone], the “identified by the screening methods” value was “identified”. With `CC1=C(CC(=O)O)c2cc(F)ccc2/C1=C\c1ccc([S+](C)[O-])cc1` (stereo not shown) [sulindac] the “identified by the screening methods” value was “identified”. With `C[C@]12C=CC(=O)C=C1CC[C@H]1[C@@H]3C[C@@H](O)[C@](O)(C(=O)CO)[C@@]3(C)C[C@H](O)[C@@]12F` [triamcinolone] the “identified by the screening methods” value was “identified”. In the case of Caspofungin acetate, the “identified by the screening methods” value is reported as “identified”.

Same assay, conditions: DKO cells, minimal UQ10 added
In the case of Caspofungin acetate, the “hit in the UQ supplementation screen (method 2)” value is reported as “one of the hits”.

From US12053441B2, “Formulations for improving the delivery of hydrophobic agents” (THE ROYAL INSTITUTION FOR THE ADVANCEMENT OF LEARNING / …, priority 2018, dated 2024)
